Tested on: patients after acute myocardial infarction
Test: Life quality, Seattle Angina Questionnaire (SAQ), same clinical trial
Type: in vivo, human
Conditions: 1 month after treatment
Description: 3508 patients who were in accordance with the diagnostic standards of AMI for 28 days to 2 years and differentiated as Qi deficiency and blood stagnation syndrome by TCM were studied. 0.5 g Chinese medicine composition prepared by the method of EXAMPLE 1 (Coded as QSYQ) was administrated half an hour after meal, 3 times per day.
There were 19 questions in the Seattle angina questionnaire (SAQ), including 5 parts: physical limitation (PL), anginal stability (AS), anginal frequency (AF), treatment satisfaction (TS) and disease perception (DP). After being given necessary explanation by doctors, the questions were answered independently by patients.
They included the overall survival time, angina pectoris score, TCM symptom score and life quality score, where angina pectoris score, TCM symptom score and life quality score were evaluated at randomization, in 1st, 3rd, 6th, 9th, 12th month after treatment and 18th month after follow-up.
All evaluation results of SAQ were described during the period of observation, and Wilcoxon rank sum test was used for inter-group comparison.
The evaluation results in the SAQ were depicted in different observations, and inter-group comparison was tested by Wilcoxon Rank-sum test.

CC(=O)Oc1ccccc1C(=O)O [Control group, aspirine]
SAQ 2nd question: Clearly increased, % of cases (FAS): (0.92%) | SAQ 2nd question: Clearly increased, cases (FAS): 16 | SAQ 2nd question: Clearly reduced, % of cases (FAS): (16.50%) | SAQ 2nd question: Clearly reduced, cases (FAS): 287 | SAQ 2nd question: Same, % of cases (FAS): (49.05%) | SAQ 2nd question: Same, cases (FAS): 853 | SAQ 2nd question: Slightly increased, % of cases (FAS): (3.05%) | SAQ 2nd question: Slightly increased, cases (FAS): 53 | SAQ 2nd question: Slightly reduced, % of cases (FAS): (30.48%) | SAQ 2nd question: Slightly reduced, cases (FAS): 530 | SAQ 3rd question: 1-2 times per week, % of cases (FAS): (30.48%) | SAQ 3rd question: 1-2 times per week, cases (FAS): 530 | SAQ 3rd question: 1-3 times per day, % of cases (FAS): (3.05%) | SAQ 3rd question: 1-3 times per day, cases (FAS): 53 | SAQ 3rd question: <1 time per week, % of cases (FAS): (16.50%) | SAQ 3rd question: <1 time per week, cases (FAS): 287 | SAQ 3rd question: No onset, % of cases (FAS): (0.00%) | SAQ 3rd question: No onset, cases (FAS): 0 | SAQ 3rd question: ≧3 times per week, % of cases (FAS): (49.05%) | SAQ 3rd question: ≧3 times per week, cases (FAS): 853 | SAQ 3rd question: ≧4 times per day, % of cases (FAS): (0.92%) | SAQ 3rd question: ≧4 times per day, cases (FAS): 16 | SAQ Question 1-3: Mildly limited, number of patients (FAS): 126 | SAQ Question 1-3: Mildly limited, percent of patients (FAS): (7.23%) | SAQ Question 1-3: Moderately limited, number of patients (FAS): 34 | SAQ Question 1-3: Moderately limited, percent of patients (FAS): (1.95%) | SAQ Question 1-3: Not limited, number of patients (FAS): 1261 | SAQ Question 1-3: Not limited, percent of patients (FAS): (72.39%) | SAQ Question 1-3: Other reasons, number of patients (FAS): 9 | SAQ Question 1-3: Other reasons, percent of patients (FAS): (0.52%) | SAQ Question 1-3: Severely limited, number of patients (FAS): 5 | SAQ Question 1-3: Severely limited, percent of patients (FAS): (0.29%) | SAQ Question 1-3: Slightly limited, number of patients (FAS): 307 | SAQ Question 1-3: Slightly limited, percent of patients (FAS): (17.62%) | SAQ Question 1-4: Mildly limited, number of patients (FAS): 349 | SAQ Question 1-4: Mildly limited, percent of patients (FAS): (20.05%) | SAQ Question 1-4: Moderately limited, number of patients (FAS): 159 | SAQ Question 1-4: Moderately limited, percent of patients (FAS): (9.13%) | SAQ Question 1-4: Not limited, number of patients (FAS): 618 | SAQ Question 1-4: Not limited, percent of patients (FAS): (35.50%) | SAQ Question 1-4: Other reasons, number of patients (FAS): 12 | SAQ Question 1-4: Other reasons, percent of patients (FAS): (0.69%) | SAQ Question 1-4: Severely limited, number of patients (FAS): 35 | SAQ Question 1-4: Severely limited, percent of patients (FAS): (2.01%) | SAQ Question 1-4: Slightly limited, number of patients (FAS): 568 | SAQ Question 1-4: Slightly limited, percent of patients (FAS): (32.62%) | SAQ Question 1-5: Mildly limited, number of patients (FAS): 315 | SAQ Question 1-5: Mildly limited, percent of patients (FAS): (18.09%) | SAQ Question 1-5: Moderately limited, number of patients (FAS): 196 | SAQ Question 1-5: Moderately limited, percent of patients (FAS): (11.26%) | SAQ Question 1-5: Not limited, number of patients (FAS): 648 | SAQ Question 1-5: Not limited, percent of patients (FAS): (37.22%) | SAQ Question 1-5: Other reasons, number of patients (FAS): 10 | SAQ Question 1-5: Other reasons, percent of patients (FAS): (0.57%) | SAQ Question 1-5: Severely limited, number of patients (FAS): 32 | SAQ Question 1-5: Severely limited, percent of patients (FAS): (1.84%) | SAQ Question 1-5: Slightly limited, number of patients (FAS): 540 | SAQ Question 1-5: Slightly limited, percent of patients (FAS): (31.02%) | SAQ Question 1-9: Mildly limited, % of cases (FAS): (16.68%) | SAQ Question 1-9: Mildly limited, cases (FAS): 284 | SAQ Question 1-9: Moderately limited, % of cases (FAS): (21.02%) | SAQ Question 1-9: Moderately limited, cases (FAS): 358 | SAQ Question 1-9: Not limited, % of cases (FAS): (2.88%) | SAQ Question 1-9: Not limited, cases (FAS): 49 | SAQ Question 1-9: Other reasons, % of cases (FAS): (6.17%) | SAQ Question 1-9: Other reasons, cases (FAS): 105 | SAQ Question 1-9: Severely limited, % of cases (FAS): (41.93%) | SAQ Question 1-9: Severely limited, cases (FAS): 714 | SAQ Question 1-9: Slightly limited, % of cases (FAS): (11.33%) | SAQ Question 1-9: Slightly limited, cases (FAS): 193 | SAQ 2nd question: Clearly increased, % of cases (PP): (0.54%) | SAQ 2nd question: Clearly increased, cases (PP): 8 | SAQ 2nd question: Clearly reduced, % of cases (PP): (16.75%) | SAQ 2nd question: Clearly reduced, cases (PP): 248 | SAQ 2nd question: Same, % of cases (PP): (49.63%) | SAQ 2nd question: Same, cases (PP): 735 | SAQ 2nd question: Slightly increased, % of cases (PP): (2.90%)
